Experiments:
[1] = test system: T3-dependent activation of luciferase activity; experiment: Thyroid-responsive luciferase reporter (TRE) in oocytes expressing 4F2hc-IU12; assay type: cell-based, Xenopus laevis; details: 5 mM BCH, 10 nM T3, 24 h; preliminary data from one batch of oocytes
Description: FIG. 6. […] Ratio of luminescent counts for each oocyte type compared to thyroid-responsive luciferase (TRE)-only injected oocytes. Data shown for n=4 batches (each 7-9 oocytes). […] 4/I/R/T—4F2hc/IU12/RXRα/TRβ co-injected oocytes. RXRα/TRβ (heterodimers of RXR, or 9-cis retinoic acid receptor, and TR)— nuclear receptors for TH; *, significant change in luciferase activity compared to TRE-only injected oocytes (p<0.05). […] All incubations were performed over a 24-hour time period.
Overexpression of the 4F2hc-IU12 heterodimer in oocytes produced a functional activation of System L transporter activity.

[2] = test system: BeWo placental choriocarcinoma cells; experiment: Nuclear uptake of [125I]T3 in BeWo cells; assay type: cell-based, human
[3] = test system: T3-dependent transcriptional activation of a luciferase reporter in BeWo cells; experiment: T3-induced luciferase reporter activity in BeWo cells; assay type: cell-based, human; details: 24 h exposure
Description: FIG. 7. […] Infected cells were exposed to experimental conditions for 24 h prior to assay of luciferase activity.

[4] = test system: 4F2hc-IU12 heterodimers; experiment: Thyroid hormone and amino acid transport by 4F2hc-IU12 heterodimers expressed in Xenopus oocytes (radiotracer uptake and its inhibition); assay type: cell-based, Xenopus laevis; details: for inhibition of 4F2hc-IU12 induced [3H]tryptophan uptake, in words: 1 μM tryptophan tracer, inhibitors 10 μM T4, 5 mM BCH, increasing unlabelled T3 or tryptophan; for inhibition of 4F2hc-IU12 induced 0.1 μM TH (T3) uptake, in words: inhibitors 10 μM T3/T4, 5 mM BCH, 10 mM tryptophan, data shown for T3 only; for Vmax of 4F2hc-IU12 induced transport / Km / uptake of [3H]phenylalanine and [3H]tryptophan: 4F2hc-IU12 injected oocytes; for Vmax of 4F2hc-IU12 induced transport / Km: 4 days post-injection, TH 0.05-10 μM, 60 min uptake; for Km: read-out: apparent Km of 4F2hc-IU12 induced transport; for uptake of [3H]phenylalanine and [3H]tryptophan: 50 μM amino acid, preliminary experiments
From the text: Xenopus laevis toads were purchased from the South African Xenopus Facility. Chemicals were obtained from Sigma (UK) with the exception of Collagenase A (Boehringer, UK) and Ultraspec water (Ambion, UK). Radiotracers were purchased from NEN (UK). cDNAs encoding IU12 (2.3 Kb EcoRI/ApaI fragment from pBluescriptSK-IU12) (Liang et al. 1997, Cell Res 7: 179-193) and human 4F2hc (1.85 Kb Ecor1/BamH1 fragment from pSP65-4F2) (Teixeira et al. 1987, J Biol Chem 262: 9574-9580) were subcloned into the multiple-cloning region of pSG5 (an SV-40 driven expression plasmid).
(§1) Oocytes were isolated by collagenase treatment (Peter et al. 1996, Biochem J 318: 915-922) of ovarian tissue obtained from mature female Xenopus laevis toads (South African Xenopus Facility). Defolliculated, stage V-V1 (prophase-arrested) oocytes were selected and maintained at 18° C. in Modified Barth's Medium (MBM) containing (in mM): 88 NaCl, 1 KCL, 2.4 NaHCO3, 0.82 MgSO4.7H2O, 0.66 NaNO3, 0.75 CaCl2x2H2O, 5.0 HEPES, pH 7.6 with Tris base, 10 mg/liter gentamycin sulphate. For DNA injection, oocytes were transferred into individual wells of Tetraski plates pre-filled with MBM and centrifuged at 500 g for 10 minutes at 18° C., which causes migration of the nucleus to the cell surface and facilitates nuclear injection (Mertz & Gurdon 1977, PNAS 395: 288-291). The visible nucleus of each oocyte was injected with 2 ng DNA in 15 nl Ultraspec water using a pneumatic delivery system (Peter et al. 1996, Biochem J 318: 915-922). For co-injection studies, 2 ng of both DNAs (i.e. 4F2hc/IU12) were injected. Nuclei of control oocytes were injected with Ultraspec water. Oocytes were incubated in MBM at 18° C. for 4 days to allow expression of injected DNA before experimentation.
(§2) All experiments were carried out at 22° C. using Na^+-free transport buffer (unless otherwise stated) containing 100 mM tetramethylammonium chloride (TMACl), 2 mM KCl; 1 mM CaCl2; 1 mM MgCl2; 10 mM HEPES, pH 7.5 with Tris). Radiolabelled amino acid uptake (3H-phenylalanine or ^3H-tryptophan over 30 min) was also measured (Peter et al. 1996, Biochem J 318: 915-922). BCH (5 mM) was used as a specific inhibitor of amino acid transport System L.
Data are expressed as mean values±standard error of the mean (S.E.M; n=number of observations). Experimental measurements in each batch of oocytes were made on 7-11 individual oocytes. Differences between mean values were assessed using Students unpaired t-test, with significance assigned at p<0.05.

[5] = test system: water-injected oocytes; experiment: Basal radiotracer uptake in control (water-injected) Xenopus oocytes; assay type: cell-based, Xenopus laevis; details: for uptake of [3H]phenylalanine and [3H]tryptophan: 50 μM amino acid, water-injected cells
Description: as §1, §2

[6] = target: human 4F2 heavy-chain (4F2hc) glycoprotein (human) (UniProt P08195)

Question: How did the “effect on T3-dependent activation of luciferase activity in oocytes expressing 4F2hc-IU12” value [1] turn out when NC1(C(=O)O)CC2CCC1C2 (stereo not shown) [BCH, 2-endoamino-bicycloheptane-2-carboxylic acid] was run?
Answer: blocked

Question: What about the “effect on nuclear uptake of [125I]T3” value [2] of the same compound?
Answer: inhibit

Question: What about the “effect on T3-dependent transcriptional activation of a luciferase reporter” value [3] of the same compound?
Answer: inhibit

Question: And the “inhibition of 4F2hc-IU12 induced [3H]tryptophan uptake, in words” value [4]?
Answer: inhibited

Question: What about the “inhibition of 4F2hc-IU12 induced 0.1 μM TH (T3) uptake, in words” value [4] of the same compound?
Answer: significantly inhibited

Question: With N[C@@H](Cc1cc(I)c(Oc2ccc(O)c(I)c2)c(I)c1)C(=O)O [T3, tri-iodothyronine] as the compound, how does the “control T3 uptake (absence of inhibitor)” value ([5]; 0.1 μM T3, water-injected oocytes) read?
Answer: 22±3 fmol/oocyte.h

Question: Which “average increase in uptake over control (water- or IU12-injected oocytes)” value ([4]; 0.1 μM TH, n=5 batches of oocytes) does the source give for N[C@@H](Cc1cc(I)c(Oc2cc(I)c(O)c(I)c2)c(I)c1)C(=O)O [T4, thyroxine] here?
Answer: 2.1±0.5 times

Question: And the “inhibition of 4F2hc-IU12 induced [3H]tryptophan uptake, in words” value [4]?
Answer: has not achieved statistical significance

Question: And the “Vmax of 4F2hc-IU12 induced transport” value [4]?
Answer: 2.0±0.6 pmol/oocyte.h

Question: What about the Km [4] of the same compound?
Answer: 6.3 µM

Question: And the “inhibition of 4F2hc-IU12 induced 0.1 μM TH (T3) uptake, in words” value [4]?
Answer: mutual cross-inhibition

Question: Which results are given for O=C(O)Cc1cc(I)c(Oc2ccc(O)c(I)c2)c(I)c1 [TRIAC, triodothyroacetic acid]?
Answer: inhibition of T3 uptake, in words ([5]; water-injected oocytes): did not inhibit; inhibition of tryptophan uptake, in words ([5]; water-injected oocytes): did not inhibit

Question: What does the source list for N[C@@H](Cc1ccccc1)C(=O)O [phenylalanine]?
Answer: uptake of [3H]phenylalanine and [3H]tryptophan [5]: 10 pmol/oocyte.h; uptake of [3H]phenylalanine and [3H]tryptophan [4]: 120 pmol/oocyte.h

Question: Which “inhibition of induced 0.1 μM T3 uptake” value ([4]; inhibitor 10 μM, n=3 preparations) does the source give for NC(Cc1ccc(Oc2cc(I)c(O)c(I)c2)c(I)c1)C(=O)O (stereo not shown) [rT3, reverse tri-iodothyronine] here?
Answer: 41±4%

Question: What does the source list for N[C@@H](Cc1c[nH]c2ccccc12)C(=O)O [tryptophan]?
Answer: effect on nuclear uptake of [125I]T3 [2]: inhibit; effect on T3-dependent transcriptional activation of a luciferase reporter [3]: inhibit; control tryptophan uptake (absence of inhibitor) ([5]; 1 μM tryptophan, water-injected oocytes): 2.1±0.1 pmol/oocyte.h; uptake of [3H]phenylalanine and [3H]tryptophan [5]: 10 pmol/oocyte.h; inhibition of 4F2hc-IU12 induced [3H]tryptophan uptake, in words [4]: concentration-dependent inhibition; control tryptophan uptake (absence of inhibitor) ([4]; 1 μM tryptophan, 4F2hc-IU12-injected oocytes): 10.2±0.4 pmol/oocyte.h; uptake of [3H]phenylalanine and [3H]tryptophan [4]: 120 pmol/oocyte.h; Vmax of 4F2hc-IU12 induced transport [4]: 180±54 pmol/oocyte.h; Km [4]: 70 µM; inhibition of 4F2hc-IU12 induced 0.1 μM TH (T3) uptake, in words [4]: significantly inhibited

Question: With “Xenopus laevis IU12 light-chain (lc) permease” as the compound, how does the uptake of [3H]phenylalanine and [3H]tryptophan into Xenopus oocytes (pmol/oocyte.h) [6] read?
Answer: 120

Question: What about the uptake of [125I]T3 and [125I]T4 (0.1 µM) into Xenopus oocytes (times over control (T3)) [6] of the same compound?
Answer: 2.7
